Peptide text beside a SMILES is read from it. * marks the point of attachment. Cbz = O=C(OCc1ccccc1)*
Experiments:
HIF-1α (myc-HIF-V5) = assay: Cycloheximide pulse-chase / Western blot of myc-HIF-V5 in transfected HN33 cells; type: cell-based, mouse
Protocol: Cell lysates were obtained by rinsing monolayers with ice-cold PBS×1 followed by the addition of RIPA buffer containing both protease and phosphatase inhibitor cocktails (Sigma-Aldrich, St. Louis, Mo.). Samples were boiled in Laemmeli buffer and electrophoresed under reducing conditions on polyacrylamide gels. Proteins were transferred to PVDF membranes and blocked in TBS-T ([…] Tris-HCl, pH 8.0, 0.9% NaCl, and 0.1% Tween-20™) containing 5% non-fat dry milk for 1 h at room temperature. Antibodies used in this study included: NeuN (Chemicon, Temecula, Calif.; 1:500), GFP, HIF-1α (Novus Biologicals, NB-100-449 and NB-100-131, Littleton, Colo.), TUJ1 & MKP-1 (Santa Cruz Biologicals, San Diego, Calif.; 1:500) Caspase 9, cleaved caspase-3, -9, -12, and cleaved PARP (CST, Danvers, Mass.). Blots were exposed to HRP conjugated secondary antibodies (Santa Cruz Biologicals, CA) prior to chemiluminescent detection (Amersham). To resolve molecular weight changes in HIF-1α, crude lysates were run on 15% PAGE gels.
The cDNA for mouse HIF-1α was generated by RT-PCR using total cDNA from HN33.11 cultures using Superscript III according to the manufacturer's instructions using the random hexamer method (Invitrogen, Carlsbad, Calif.). PCR was performed using forward (5′-[…]-3′ (SEQ ID NO:1)) and reverse (5′-TCAG-[…]-3′ (SEQ ID NO:2)) primers as described (Chun et al., “A New HIF-1 Alpha Variant Induced by Zinc Ion Suppresses HIF-1-Mediated Hypoxic Responses,” J. Cell Sci. 114:4051-61 (2001), which is hereby incorporated by reference in its entirety), and the cDNA was sub-cloned to pCDNA3.1 and sequenced in its entirety. This sequence was sub-cloned by PCR using high fidelity polymerase and both the forward primer (5′-GCGGGATCCA […] GAA-3′ (SEQ ID NO:3)) containing a BamHI site followed by a Kozak consensus sequence and the Myc epitope tag and the reverse primer (5′-ggggcggccgcTAA CTTGATCCAAAGC […]-3′ (SEQ ID NO:4)) containing the Not I site allowing in frame ligation with the V5-6×His tag in pUB6-V5-6×HIS (Invitrogen). […]

[1] = test system: human HIF-1α (HIF-V5-6×His); assay: Western blot of human HIF-1α fusion expressed in N2A line; type: cell-based; conditions: human HIF-1α fusion in N2A line treated with MG132 (FIG. 7B)
Protocol: (§1) FIGS. 7A-C illustrate in vitro characterization and purification of HIF-1α cleavage product. […] Effects of MKP overexpression were tested by co-expressing either empty plasmid (pSG5) or vector expressing wildtype MKP-1 (pSG5-MKPwt; compare lanes 1 vs 2 & 3). Parallel samples were also treated with the proteosome inhibitor MG132 to determine whether sub fragments could be stabilized. Full-length and c-terminal fragments were identified using the carboxy-terminal V5 tag. FIG. 7B depicts optimization of expression conditions for human HIF-V5-6×His. Full-length and the proteolytic cleavage form of human HIF-1α are observed when expressed in the mouse N2A line. Other bands are shown as present in both samples and are cross reactive contaminants with V5 antibody. FIG. 7C illustrates affinity purification of the c-terminal HIF-1α fragment using the 6×His tag resin. N2A cells were transfected with the empty (pUB6-MCS) or HIF-expressing plasmids (pUb6-hHIF) and exposed to MG132 to induce fragment accumulation.
The addition of MKPwt reduced overall levels of both full-length and C-terminal fragments. […] Bands correlating to full length (approximately 110 kDa) and the c-terminal fragment (running at approximately 48 kDa) were isolated from polyacrylamide gels and subjected to LC-MS/MS. […]

[2] = test system: mouse HIF-1α (Myc-HIF-6×His-V5); assay: Western blot of V5-tagged mouse HIF-1α expressed in N2A neuroblastoma line; type: cell-based; conditions: N2A cells, 24 hours post-transfection (FIG. 7A)
Protocol: as §1
Cell lysates were obtained by rinsing monolayers with ice-cold PBS×1 followed by the addition of RIPA buffer containing both protease and phosphatase inhibitor cocktails (Sigma-Aldrich, St. Louis, Mo.). Samples were boiled in Laemmeli buffer and electrophoresed under reducing conditions on polyacrylamide gels. […]

HIF-1α = conditions: effect of lambda phosphatase, compared with MEK inhibitor; cited from earlier work

| SMILES | induction of LMW-HIF-1α species (HIF-1α (myc-HIF-V5); FIG. 4D legend, HN33 lysates, CHX pulse-chase and MG132) | effect on MKP-1 mediated destabilization of HIF-1α (HIF-1α (myc-HIF-V5); HN33 cells transfected with dual-tagged vector, normoxic, cycloheximide pulse chase (FIG. 4D)) | accumulation of intermediate myc-HIF-V5 species (HIF-1α (myc-HIF-V5); HN33 cells, independent of MKP-1 levels (FIG. 4D, double asterisk)) | formation of c-terminal HIF-1α fragment [1] | detection of V5-reactive C-terminal fragment of HIF-1α [2] | reduction of HIF-1α complex doublet to a single 103 kDa band (HIF-1α) |
| --- | --- | --- | --- | --- | --- | --- |
| CC(C)C[C@@H](C=O)NC(=O)[C@H](CC(C)C)NC(=O)[C@H](CC(C)C)NC(=O)OCc1ccccc1 [MG132] (Cbz-Leu-Leu-Leu-aldehyde) | inducing several LMW-HIF-1α species | negate the destabilizing effect of MKP-1 | enhanced the accumulation | produced the expected c-terminal HIF-1α fragment | detected only after treatment | – |
| COc1cccc(-c2cc(=O)c3ccccc3o2)c1N [PD98059] | – | – | – | – | – | effect mimicked |

Source: patent US9205129B2, “Methods of treatment and screening assays for HIF-1α regulation” (University of Rochester, priority 2009, dated 2015)
